In ChEMBL document CHEMBL1201862, “PubChem BioAssay data set” (2004):
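Compound exposure: 48 hours, 5 concentrations, 96-well plates. GI50 = concentration required for 50% inhibition of growth.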 Activity calls are given as the source filed them. Cut-off read from the data, not from the text of the source: active = GI50 up to about 1.1 µM and inactive = higher.

What was measured:
Experiment in all cases: growth of human tumour cells (NCI), 48 h
TK-10 = test system: TK-10
NCI-H226 = test system: NCI-H226
RPMI-8226 = test system: RPMI-8226
SNB-75 = test system: SNB-75
SF-539 = test system: SF-539
A549 = test system: A549
CCRF-CEM = test system: CCRF-CEM
786-0 = test system: 786-0
Hs-578T = test system: Hs-578T
DU-145 = test system: DU-145
UACC-62 = test system: UACC-62
UACC-257 = test system: UACC-257
HOP-62 = test system: HOP-62
SF-295 = test system: SF-295
UO-31 = test system: UO-31
COLO 205 = test system: COLO 205
NCI-H460 = test system: NCI-H460
MOLT-4 = test system: MOLT-4
LOX IMVI = test system: LOX IMVI
U-251 = test system: U-251
OVCAR-3 = test system: OVCAR-3
HCT-116 = test system: HCT-116
MDA-MB-435 = test system: MDA-MB-435
SF-268 = test system: SF-268
K562 = test system: K562
NCI-H23 = test system: NCI-H23
T47D = test system: T47D
PC-3 = test system: PC-3
CAKI-1 = test system: CAKI-1
HCT-15 = test system: HCT-15
SNB-19 = test system: SNB-19
HL-60 = test system: HL-60
SK-OV-3 = test system: SK-OV-3
OVCAR-5 = test system: OVCAR-5
HCC 2998 = test system: HCC 2998
IGROV-1 = test system: IGROV-1
HOP-92 = test system: HOP-92
NCI-H522 = test system: NCI-H522
ACHN = test system: ACHN
HT-29 = test system: HT-29
NCI/ADR-RES = test system: NCI/ADR-RES
MCF7 = test system: MCF7
KM12 = test system: KM12
MDA-MB-231 = test system: MDA-MB-231
MDA-N = test system: MDA-N
M14 = test system: M14
SW-620 = test system: SW-620
SK-MEL-2 = test system: SK-MEL-2
Malme-3M = test system: Malme-3M
SN12C = test system: SN12C
OVCAR-8 = test system: OVCAR-8
SK-MEL-28 = test system: SK-MEL-28
SR = test system: SR
SK-MEL-5 = test system: SK-MEL-5
OVCAR-4 = test system: OVCAR-4
BT-549 = test system: BT-549
A498 = test system: A498
EKVX = test system: EKVX
RXF 393 = test system: RXF 393

## CC(NC(=O)c1ccc(OP(=O)(OCC2=CC(=O)c3ccccc3C2=O)N(C)CCCCCl)cc1)c1ccc(OCC2CCCCC2)c(C(N)=O)c1 (stereo unspecified)
TK-10
  GI50: 25.1 µM (inactive)
NCI-H226
  GI50: 11.1 µM (inactive)
RPMI-8226
  GI50: 11.2 µM (inactive)
SNB-75
  GI50: 0.0122 µM (active)
SF-539
  GI50: 15.2 µM (inactive)
A549
  GI50: 1.67 µM (inactive)
CCRF-CEM
  GI50: 7.71 µM (inactive)
786-0
  GI50: 14.6 µM (inactive)
Hs-578T
  GI50: 2.52 µM (inactive)
DU-145
  GI50: 3.5 µM (inactive)
UACC-62
  GI50: 9.64 µM (inactive)
UACC-257
  GI50: 4.59 µM (inactive)
HOP-62
  GI50: 18 µM (inactive)
SF-295
  GI50: 5.06 µM (inactive)
UO-31
  GI50: 10.2 µM (inactive)
COLO 205
  GI50: 7.28 µM (inactive)
NCI-H460
  GI50: 11 µM (inactive)
MOLT-4
  GI50: 12.3 µM (inactive)
LOX IMVI
  GI50: 4.27 µM (inactive)
U-251
  GI50: 10.6 µM (inactive)
OVCAR-3
  GI50: 1.41 µM (inactive)
HCT-116
  GI50: 14.3 µM (inactive)
MDA-MB-435
  GI50: 2.47 µM (inactive)
SF-268
  GI50: 13.4 µM (inactive)
K562
  GI50: 17.4 µM (inactive)
NCI-H23
  GI50: 2.7 µM (inactive)
T47D
  GI50: 0.0891 µM (active)
PC-3
  GI50: 14.2 µM (inactive)
CAKI-1
  GI50: 9.44 µM (inactive)
HCT-15
  GI50: 12.2 µM
SNB-19
  GI50: 14.4 µM (inactive)
HL-60
  GI50: 14.5 µM (inactive)
SK-OV-3
  GI50: 15.4 µM (inactive)
OVCAR-5
  GI50: 21.4 µM (inactive)
HCC 2998
  GI50: 0.0149 µM (active)
IGROV-1
  GI50: 9.66 µM (inactive)
HOP-92
  GI50: 0.0244 µM (active)
NCI-H522
  GI50: 11.8 µM (inactive)
ACHN
  GI50: 12.7 µM (inactive)
HT-29
  GI50: 15.1 µM (inactive)
NCI/ADR-RES
  GI50: 14.8 µM (inactive)
MCF7
  GI50: 11.4 µM (inactive)
KM12
  GI50: 12 µM (inactive)
MDA-MB-231
  GI50: 8.99 µM (inactive)
MDA-N
  GI50: 2.72 µM (inactive)
M14
  GI50: 3.32 µM (inactive)
SW-620
  GI50: 12.4 µM (inactive)
SK-MEL-2
  GI50: 14.8 µM (inactive)
Malme-3M
  GI50: 1.88 µM (inactive)
SN12C
  GI50: 13.4 µM (inactive)
OVCAR-8
  GI50: 13.4 µM (inactive)
SK-MEL-28
  GI50: 14.2 µM (inactive)
SR
  GI50: 12.6 µM (inactive)
SK-MEL-5
  GI50: 0.328 µM (active)

## O=S(=O)(F)Cc1ccccc1 [PHENYLMETHYLSULFONYLFLUORIDE]
TK-10
  GI50: > 100 µM (inactive)
OVCAR-4
  GI50: > 100 µM (inactive)
NCI-H226
  GI50: > 100 µM (inactive)
RPMI-8226
  GI50: > 100 µM (inactive)
SNB-75
  GI50: > 100 µM (inactive)
SF-539
  GI50: > 100 µM (inactive)
A549
  GI50: > 100 µM (inactive)
CCRF-CEM
  GI50: > 100 µM (inactive)
786-0
  GI50: > 100 µM (inactive)
DU-145
  GI50: > 100 µM (inactive)
UACC-62
  GI50: > 100 µM (inactive)
UACC-257
  GI50: > 100 µM (inactive)
HOP-62
  GI50: > 100 µM (inactive)
SF-295
  GI50: > 100 µM (inactive)
UO-31
  GI50: > 100 µM (inactive)
COLO 205
  GI50: > 100 µM (inactive)
NCI-H460
  GI50: > 100 µM (inactive)
MOLT-4
  GI50: > 100 µM (inactive)
LOX IMVI
  GI50: > 100 µM (inactive)
BT-549
  GI50: > 100 µM (inactive)
U-251
  GI50: > 100 µM (inactive)
OVCAR-3
  GI50: > 100 µM (inactive)
HCT-116
  GI50: > 100 µM (inactive)
MDA-MB-435
  GI50: > 100 µM (inactive)
SF-268
  GI50: > 100 µM (inactive)
K562
  GI50: > 100 µM (inactive)
NCI-H23
  GI50: > 100 µM (inactive)
PC-3
  GI50: > 100 µM (inactive)
CAKI-1
  GI50: > 100 µM (inactive)
HCT-15
  GI50: > 100 µM
SNB-19
  GI50: > 100 µM (inactive)
SK-OV-3
  GI50: > 100 µM (inactive)
A498
  GI50: > 100 µM (inactive)
OVCAR-5
  GI50: > 100 µM (inactive)
HCC 2998
  GI50: > 100 µM (inactive)
IGROV-1
  GI50: > 100 µM (inactive)
HOP-92
  GI50: > 100 µM (inactive)
NCI-H522
  GI50: 39.1 µM (inactive)
ACHN
  GI50: > 100 µM (inactive)
HT-29
  GI50: > 100 µM (inactive)
NCI/ADR-RES
  GI50: > 100 µM (inactive)
MCF7
  GI50: > 100 µM (inactive)
EKVX
  GI50: > 100 µM (inactive)
KM12
  GI50: > 100 µM (inactive)
MDA-MB-231
  GI50: > 100 µM (inactive)
MDA-N
  GI50: > 100 µM (inactive)
M14
  GI50: > 100 µM (inactive)
SW-620
  GI50: > 100 µM (inactive)
SK-MEL-2
  GI50: > 100 µM (inactive)
Malme-3M
  GI50: 0.486 µM (active)
SN12C
  GI50: > 100 µM (inactive)
OVCAR-8
  GI50: > 100 µM (inactive)
SK-MEL-28
  GI50: > 100 µM (inactive)
SR
  GI50: > 100 µM (inactive)
SK-MEL-5
  GI50: > 100 µM (inactive)

## O=C1c2n[nH]nc2C(=O)c2n[nH]nc21
TK-10
  GI50: > 100 µM (inactive)
OVCAR-4
  GI50: > 100 µM (inactive)
NCI-H226
  GI50: > 39.2 µM (inactive)
RPMI-8226
  GI50: > 100 µM (inactive)
SNB-75
  GI50: > 100 µM (inactive)
SF-539
  GI50: > 100 µM (inactive)
A549
  GI50: > 100 µM (inactive)
CCRF-CEM
  GI50: > 100 µM (inactive)
786-0
  GI50: > 100 µM (inactive)
Hs-578T
  GI50: > 100 µM (inactive)
DU-145
  GI50: > 100 µM (inactive)
UACC-62
  GI50: > 100 µM (inactive)
UACC-257
  GI50: > 100 µM (inactive)
HOP-62
  GI50: > 100 µM (inactive)
SF-295
  GI50: > 100 µM (inactive)
UO-31
  GI50: > 100 µM (inactive)
COLO 205
  GI50: > 100 µM (inactive)
NCI-H460
  GI50: > 100 µM (inactive)
MOLT-4
  GI50: > 100 µM (inactive)
LOX IMVI
  GI50: > 100 µM (inactive)
U-251
  GI50: > 100 µM (inactive)
OVCAR-3
  GI50: > 100 µM (inactive)
HCT-116
  GI50: > 100 µM (inactive)
MDA-MB-435
  GI50: > 100 µM (inactive)
SF-268
  GI50: > 100 µM (inactive)
K562
  GI50: > 100 µM (inactive)
NCI-H23
  GI50: > 100 µM (inactive)
T47D
  GI50: > 100 µM (inactive)
PC-3
  GI50: > 100 µM (inactive)
CAKI-1
  GI50: > 100 µM (inactive)
HCT-15
  GI50: > 100 µM
SNB-19
  GI50: > 100 µM (inactive)
HL-60
  GI50: > 100 µM (inactive)
SK-OV-3
  GI50: > 100 µM (inactive)
A498
  GI50: > 100 µM (inactive)
OVCAR-5
  GI50: > 100 µM (inactive)
HCC 2998
  GI50: > 100 µM (inactive)
IGROV-1
  GI50: > 66.4 µM (inactive)
HOP-92
  GI50: > 100 µM (inactive)
NCI-H522
  GI50: > 100 µM (inactive)
ACHN
  GI50: > 100 µM (inactive)
HT-29
  GI50: > 100 µM (inactive)
NCI/ADR-RES
  GI50: > 100 µM (inactive)
MCF7
  GI50: > 100 µM (inactive)
RXF 393
  GI50: > 100 µM (inactive)
EKVX
  GI50: > 100 µM (inactive)
KM12
  GI50: > 100 µM (inactive)
MDA-MB-231
  GI50: > 100 µM (inactive)
MDA-N
  GI50: > 100 µM (inactive)
M14
  GI50: > 100 µM (inactive)
SW-620
  GI50: > 100 µM (inactive)
SK-MEL-2
  GI50: > 100 µM (inactive)
SN12C
  GI50: > 100 µM (inactive)
OVCAR-8
  GI50: > 100 µM (inactive)
SK-MEL-28
  GI50: > 100 µM (inactive)
SR
  GI50: > 100 µM (inactive)
SK-MEL-5
  GI50: > 100 µM (inactive)
